The values that follow come from patent US20220257516A1, “THERAPEUTIC CONSTRUCTS FOR CO-DELIVERY OF MITOTIC KINASE INHIBITOR AND IMMUNE CHECKPOINT INHIBITOR” (Oregon Health & Science University, priority 2019, published 2022).

One data set relates to LLC-JSP cells. The data set is described as follows: Cell viability after treatments (Cell Titer Glo), LLC-JSP. The conditions noted are these: for 3-day viability of LLC-JSP cells: free mitotic kinase inhibitors. The class given is cell-based, mouse. Background: In ATP-based viability assays light output follows the ATP content of the culture.
Data set [1] relates to PD-L1 surface expression of LLC-JSP cells. The data set is described as follows: PD-L1 surface expression by flow cytometry, LLC-JSP. The conditions noted are these: for surface PD-L1 level of surviving cells: 500 ng/ml. The class given is cell-based, mouse. The protocol: FIGS. 4A-4C Treatment effects of mitotic kinase inhibitors on (A) 3-day viability of LLC-JSP cells, (B) PD-L1 expression levels of surviving cells post treatment with 500 ng/ml of volasertib, alisertib, or AZD7762 as determined by flow cytometry and (C) their quantification.
FIGS. 6A-6D Nanoparticle delivery of PLK1 inhibitor volasertib (iPLK1-NP) to mouse NSCLC cells. (FIG. 6A) Schematic of synthesis of iPLK1-NP. (FIG. 6B) Hydrodynamic size of NP (with no inhibitor) and iPLK1-NP measured with Zetasizer. (FIG. 6C) Viability of LLC-JSP cells treated with volasertib (in 1% DMSO/PBS), iPLK1-NP (in PBS), or 1% DMSO/PBS for 4 days. Data presented as mean±SD from 4 independent samples; ****P<0.0001. (FIG. 6D) PD-L1 surface expression of LLC-JSP cells treated with PBS or iPLK1-NP (42 μg/ml NP, 210 ng/ml volasertib) for 3 days.
FIGS. 7A-7E. Nanoparticle for co-delivery of PLK1 inhibitor (iPLK1) and PD-L1 antibody (p-iPLK1-NP). (FIG. 7A) Schematic and (FIG. 7B) hydrodynamic size of p-iPLK1-NP containing 4 wt. % of PD-L1 antibody and 0.5 wt. % of PLK1 inhibitor. (FIG. 7C) 5-day cell viability of LLC-JSP cells treated with iPLK1-NP or p-iPLK1-NP. Data presented as mean±SD from 4 independent samples; ns—not significant. PD-L1 surface expression assessed by flow cytometry after LLC-JSP cells were incubated with various treatments as specified for (FIG. 7D) 2 hrs and (FIG. 7E) 2 days. Doses: free PD-L1 antibody (50 μg/ml), iPLK1-NP (NP containing 50 μg/ml volasertib), and p-iPLK1-NP (NP containing 50 μg/ml volasertib and 2 μg/ml PD-L1 antibody). Left of FIGS. 7D and 7E: representative histograms, right: median intensity (RFU). Data presented as mean±SD from independent duplicates (10,000 events per sample); *P<0.05, **P<0.01, ***P<0.001, ****P<0.0001. Unless specified otherwise, the percent loading is by weight of nanoparticle throughout the application.
(§1) FIGS. 12A and 12B. Inhibition of PLK1 reduces phosphorylation of STAT3. Western blot showing protein expression of PLK1, Pl3Ka, phosphorylated STAT3 (Tyr705), phosphorylated AKT (Ser473), and p-Actin 3 days post treatment (50 nM siRNA) in A549 and H460 NSCLC cell lines. […] The cells were treated with NP containing 30 nM siRNA against PD-L1 (siPDL1) or 30 nM scrambled siRNA (siSCR) at 2 wt. % siRNA. At 72 hr post treatment, cells were harvested and assessed for PD-L1 protein expression by flow cytometry. RFU=Relative fluorescence units.
Flow cytometry: Cells (100K cells/well) were plated in 6 well plates overnight and treated with indicated treatments the next day. Following treatments, cells were collected and aliquoted to […] per sample before washing in FACs buffer and staining. […] Cells were then washed with FACs buffer and analyzed with Guava (50,000 events per sample).

The test system of data set [2] is PD-L1 surface expression of A549. The data set can be described thus: PD-L1 surface expression by flow cytometry, A549. The class given is cell-based, human. The conditions noted are these: 3 days (72 hr) post siRNA treatment. From the text:
(§2) FIGS. 3A-3C. […] (FIG. 3A) PLK1 and PD-L1 mRNA expression in A549 (human NSCLC) at 48 hr post treatment with PLK1 siRNA (siPLK1) or scrambled siRNA (siSCR) normalized to HPRT housekeeping gene. Data presented as mean±SD from triplicates; ****P<0.0001. (FIG. 3B) PD-L1 surface expression of A549 ([…]) and LLC-JSP (a mouse NSCLC, FIG. 3C) at 72 hr post treatments assessed by flow cytometry (10,000 events per sample). Mouse siPLK1 seq. […] (SEQ ID NO: 1); Human siPLK1 seq. […] (SEQ ID NO: 2).
Flow cytometry: Cells (100K cells/well) were plated in 6 well plates overnight and treated with indicated treatments the next day. Following treatments, cells were collected and aliquoted to […] per sample before washing in FACs buffer and staining. Primary and secondary antibodies were stained for 30 mins and 1 hour, respectively, under rocking on ice. After staining, cells were washed in FACs buffer before flow analysis with Guava easyCyte (Millipore Sigma) flow cytometer (10,000 events per sample). For tumors, tumors were harvested, minced, and incubated with 1 mg/ml DNAse for 30 minutes before smashing through 70 μm filter to obtain single cell suspension. RBC lysis buffer was incubated with cells for 5 minutes, and washed with PBS. […] Cells were then washed with FACs buffer and analyzed with Guava (50,000 events per sample).
(Flow cytometry measures light scatter and fluorescence of single cells or particles in a stream.)

The subject of data set [3] is phosphorylated STAT3 (Tyr705). The data set can be described thus: Western blot of phosphorylated STAT3 after PLK1 inhibition. The class given is cell-based, human. The conditions noted are these: A549 and H460; 3 days post treatment; 50 nM siRNA. The protocol: as §1
Western Blot. Cells were seeded in 6 well plates overnight and treated with indicated treatments. Cell culture medium was changed one day aftertreatment. Three days post treatment, cells were lysed in RIPA buffer (50-100 μl per well). Lysate was sonicated and centrifuged (15,000 RPM for 15 minutes) and supernatant was collected. Amount of total protein was quantified using BCA. 30 μg of proteins (per sample) were mixed with 4× Novex NuPAGE LDS sample buffer and beta-mercaptoethanol (10% final concentration). Samples were denatured for 5 min at 95° C. and loaded onto gel (NuPAGE) for electrophoresis. Proteins were then transferred onto PVDF-FL membrane and blocked with LICOR blocking buffer. Membranes were incubated with primary antibodies overnight (PLK1, phospho-STAT3 (Tyr705), β-ACTIN) at 4° C. […]

Data set [4] deals with PD-L1 mRNA expression in A549. The data set can be described thus: PD-L1 mRNA expression after PLK1 knock-down (RT-qPCR). The class given is cell-based, human. Particulars: 48 hr, compared with control treated cells.
From the text: as §2
RT-qPCR to assess PLK1 gene knock down: RNA was isolated with GeneJet RNA purification kit (Thermo Fisher Scientific) following manufacturer's instructions. One-Step qRT-PCR was performed using EXPRESS One-Step Superscript™ qRT-PCR Kit (Invitrogen). Cycling conditions: 50° C. for 2 min, 95° C. for 10 min, 40 cycles of 95° C. for 15 s, and 60° C. for 1 min. TAQMAN gene expression primers Human HPRT mRNA (Hs99999909_m1), Human PLK1 mRNA (Hs00983225_g1), and Human PD-L1 (Hs00204257_ml) were used. Data was analyzed using 2^−ΔΔC(t) method.
On the technique in general: Real-time PCR tracks product formation cycle by cycle.

Another data set deals with PLK1 mRNA. The data set can be described thus: PLK1 knock down by siRNA (RT-qPCR / protein). The class given is cell-based, human. The conditions noted are these: A549; 48 hr post treatment; normalized to HPRT. The protocol: (§3) FIGS. 2A-2D. Effects of siRNA against mitotic regulator PLK1 (siPLK1) on non-small-cell lung carcinoma (NSCLC) cell lines (A549 and H460). (FIG. 2A) 48-hr PLK1 mRNA knockdown (HPRT used as house-keeping gene) and (FIG. 2B) 72-hr PLK1 protein reduction at 50 nM siRNA dose. (FIG. 2C) 4-day cell viability at 30 nM siRNA dose. (FIG. 2D) Cell cycle arrest increase in G2/M phase in A549 72 hr post treatment. Antibody (cetuximab) conjugated NP was used to deliver the siPLK1 (C-siPLK1-NP) or scrambled siRNA control (C-siSCR-NP) at 50 nM siRNA BI 2536 (a PLK1 inhibitor) was used as a drug benchmark at 10 nM. Data presented as mean±SD from independent duplicates (10,000 events per sample); ****P<0.0001 vs. untreat control. Unless specified otherwise, “NP” denotes mesoporous silica nanoparticles coated with cross-linked PEI and PEG, as described in Ngamcherdtrakul et al., Advanced Functional Materials, 25(18):2646-2659, 2015 and U.S. Patent Application Publication No. 2017/0173169.
FIGS. 3A-3C. […] (FIG. 3B) PD-L1 surface expression of A549 (FIG. 2B) and LLC-JSP (a mouse NSCLC, FIG. 3C) at 72 hr post treatments assessed by flow cytometry (10,000 events per sample). […]
RT-qPCR to assess PLK1 gene knock down: RNA was isolated with GeneJet RNA purification kit (Thermo Fisher Scientific) following manufacturer's instructions. […] Data was analyzed using 2^−ΔΔC(t) method.

Another data set concerns A549. The data set is described as follows: Cell cycle arrest in G2/M phase. The class given is cell-based, human. The conditions noted are these: 72 hr post treatment, 50 nM siRNA, BI 2536 at 10 nM. The protocol:
as §3

With `COc1cc(Nc2ncc3c(n2)-c2ccc(Cl)cc2C(c2c(F)cccc2OC)=NC3)ccc1C(=O)O` [alisertib], the “3-day viability of LLC-JSP cells” value in the data set with LLC-JSP cells is reported as “significant cell death”. For the same compound, in data set [1], the “surface PD-L1 level of surviving cells” value is reported as “upregulated surface PD-L1 level”.
“siPLK1: siRNA against PLK1, antisense 5′-UAUUCAUUCUUCUUGAUCCGG-3′; SEQ ID NO: 2 (sense strand lacks entry, further chemistry not given here)”: the PD-L1 surface expression entry in data set [2] is recorded as “increase in PD-L1 surface expression”. Moreover, the “phosphorylation of STAT3” value in data set [3] is “reduced phosphorylation of STAT3”. Moreover, the “increase in PD-L1 mRNA expression” value in data set [4] is recorded as 2.5 fold. For the same compound, in the data set on PLK1 mRNA, the “knockdown of PLK1 mRNA” value worked out at 85%.
In the case of `CC[C@@H]1C(=O)N(C)c2cnc(Nc3ccc(C(=O)NC4CCN(C)CC4)cc3OC)nc2N1C1CCCC1` [BI2536], the “cell cycle arrest in G2/M phase” value in the data set on A549 was “G2/M growth arrest”.
For `CC[C@@H]1C(=O)N(C)c2cnc(Nc3ccc(C(=O)N[C@H]4CC[C@H](N5CCN(CC6CC6)CC5)CC4)cc3OC)nc2N1C(C)C` [volasertib], the “cell viability compared with vehicle treated cells” value in the data set on LLC-JSP cells (LLC-JSP, 4 days, dose-dependent) is given as “significantly reduced cell viability”. The “3-day viability of LLC-JSP cells” value in the data set on LLC-JSP cells is “significant cell death”. In addition, the “surface PD-L1 level of surviving cells” value in data set [1] is “upregulated surface PD-L1 level”.
With “Mouse siPLK1: Mouse siPLK1 seq. GUGGGCGUGGUACCAUCUGUU (SEQ ID NO: 1) (listed as RNA, chemistry not given here)”, the PD-L1 surface expression entry in data set [1] (72 hr post siRNA treatment) is “induces PD-L1 expression”.
As to `NC(=O)Nc1cc(-c2cccc(F)c2)sc1C(=O)N[C@H]1CCCNC1` [AZD7762], the “3-day viability of LLC-JSP cells” value in the data set with LLC-JSP cells was “significant cell death”. Moreover, the “surface PD-L1 level of surviving cells” value in data set [1] is “upregulated surface PD-L1 level”.
